Results on 17 compounds are retold here after patent publication US11141403B2, “Benzimidazoles and indoles as taro inhibitors” (MERCK SHARP & DOHME CORP., priority 2015, dated 2021).

The test relates to MRSA COL (MB5393). Kind of test: TarO Inhibitor/β-Lactam Synergy Assay. Type of test: cell-based, Staphylococcus aureus. The note with it: 20 hours; for IC95: Staphylococcus aureus, TarO inhibitor alone, OD600, 95% growth inhibition, read-out: MITC95 TarO inhibitor alone, Bacteria: SA_MB5393; for MITC95 TarO inhibitor + 4 μg/mL IPM; Bacteria: SA_MB5393: in combination with 4 μg/mL imipenem; for MITC95 TarO inhibitor + 4 μg/mL IPM; Bacteria: SA_MB5393 / MITC95 TarO inhibitor + 8 μg/mL DCX; Bacteria: SA_MB5393: OD600; for MITC95 TarO inhibitor + 8 μg/mL DCX; Bacteria: SA_MB5393: in combination with 8 μg/mL dicloxacillin. How it is done:
The TarO inhibitor/β-lactam synergy assay was performed to measure the re-sensitization of methicillin-resistant Staphylococci bacteria (MB5393: MRSA COL) to β-lactam antibiotics by TarO inhibitors. MRSA COL is a hospital-acquired penicillinase-negative clinically isolated strain commonly used in Staphylococcus aureus studies and is fully resistant to the antimicrobial bioactivity of β-lactam antibiotics, including but not limited to imipenem and dicloxacillin. […] MRSA COL is fully refractory to β-lactam antibiotic effect at the current clinical breakpoint concentrations and as such MRSA COL is fully viable at these concentrations.
The β-lactam antibiotic concentration was fixed at the clinical breakpoint (imipenem 4 μg/ml or dicloxacillin 8 μg/ml) and the TarO inhibitors were titrated by 2 fold starting from the highest concentration of 200 μM with final DMSO concentration of 2% in the assay. 5×10^5 colony forming unit of MRSA COL in cation-adjusted Mueller Hinton broth (CAMHB) was then mixed and the assay plate was incubated for 20 hours at 37° C. without shaking. After 20 hours, the optical density at 600 nm (OD600) was read for all wells to determine relative growth of MRSA COL.

Each structure is given as a SMILES string.

On to `CCN(C(=O)CCn1c2ccc(C#N)cc2nc1[C@H]1CC[C@H](CC)CC1)C1CCCCC1` [Example 22, 3-[5-cyano-2-(trans-4-ethylcyclohexyl)-1H-benzimidazol-1-yl]-N-cyclohexyl-N-ethylpropanamide], for which the IC95 was greater than 200 µM, the “MITC95 TarO inhibitor + 4 μg/mL IPM; Bacteria: SA_MB5393” value (“MITC95 TarO inhibitor + 4 μg/mL IPM” for short) came to 0.36 µM and the “MITC95 TarO inhibitor + 8 μg/mL DCX; Bacteria: SA_MB5393” value (from here on “MITC95 TarO inhibitor + 8 μg/mL DCX”) was determined as 0.88 µM.

On to `CCOC(=O)N1CCCC(c2nc3ccc(F)cc3n2CCC(=O)N(CC)C2CCCCC2)C1` (centres unmarked) [Example 23, Ethyl 3-(1-{3-[cyclohexyl(ethyl)amino]-3-oxopropyl}-6-fluoro-1H-benzimidazol-2-yl)piperidine-1-carboxylate], for which the IC95 was greater than 200 µM, the “MITC95 TarO inhibitor + 4 μg/mL IPM” value is 9.38 µM and the “MITC95 TarO inhibitor + 8 μg/mL DCX” value was found to be 37.50 µM.

On to `CCN(C(=O)CCn1c2cc(-c3ccccc3)ccc2nc1[C@H]1CC[C@H](CC)CC1)C1CCCCC1` [Example 24, N-cyclohexyl-N-ethyl-3-(2-(trans-4-ethylcyclohexyl)-6-phenyl-1H-benzo[d]imidazol-1-yl)propanamide], for which the IC95 is greater than 200 µM, the “MITC95 TarO inhibitor + 4 μg/mL IPM” value is 0.04 µM and the “MITC95 TarO inhibitor + 8 μg/mL DCX” value was 0.46 µM.

As to `CCN(C(=O)CCn1c2cc(-c3cnn(C)c3)ccc2nc1[C@H]1CC[C@H](CC)CC1)C1CCCCC1` [Example 25, N-cyclohexyl-N-ethyl-3-[2-(trans-4-ethylcyclohexyl)-6-(1-methyl-1H-pyrazol-4-yl)-1H-benzimidazol-1-yl]propanamide], the IC95 is greater than 200 µM, the “MITC95 TarO inhibitor + 4 μg/mL IPM” value was 0.38 µM and the “MITC95 TarO inhibitor + 8 μg/mL DCX” value was determined as 1.30 µM.

With `CCN(C(=O)CCn1c2ccc(C3CC3)cc2nc1[C@H]1CC[C@H](CC)CC1)C1CCCCC1` [Example 26, N-cyclohexyl-3-[5-cyclopropyl-2-(trans-4-ethylcyclohexyl)-1H-benzimidazol-1-yl]-N-ethylpropanamide], the IC95 is greater than 200 µM, the “MITC95 TarO inhibitor + 4 μg/mL IPM” value was found to be 1.30 µM and the “MITC95 TarO inhibitor + 8 μg/mL DCX” value amounted to 4.17 µM.

As to `CCN(C(=O)CCn1c2cc(CN)ccc2nc1[C@H]1CC[C@H](CC)CC1)C1CCCCC1` [Example 27, 3-[6-(aminomethyl)-2-(trans-4-ethylcyclohexyl)-1H-benzimidazol-1-yl]-N-cyclohexyl-N-ethylpropanamide], the IC95 was greater than 200 µM, the “MITC95 TarO inhibitor + 4 μg/mL IPM” value is 37.50 µM and the “MITC95 TarO inhibitor + 8 μg/mL DCX” value was found to be 50 µM.

With `CCN(C(=O)CCn1c2cc(C[C@H]3CCOC3)ccc2nc1[C@H]1CC[C@H](CC)CC1)C1CCCCC1` [Example 28, N-cyclohexyl-N-ethyl-3-{2-(trans-4-ethylcyclohexyl)-6-[(3S)-tetrahydrofuran-3-ylmethyl]-1H-benzimidazol-1-yl}propanamide], the IC95 was greater than 200 µM, the “MITC95 TarO inhibitor + 4 μg/mL IPM” value turned out to be 1.30 µM and the “MITC95 TarO inhibitor + 8 μg/mL DCX” value turned out to be 4.17 µM.

For the compound `CCN(C(=O)CCn1c2cccc(C[C@H]3CCOC3)c2nc1[C@H]1CC[C@H](CC)CC1)C1CCCCC1` [Example 29, N-cyclohexyl-N-ethyl-3-{2-(trans-4-ethylcyclohexyl)-4-[(3S)-tetrahydrofuran-3-ylmethyl]-1H-benzimidazol-1-yl}propanamide], the IC95 was greater than 200 µM, the “MITC95 TarO inhibitor + 4 μg/mL IPM” value was found to be 1.56 µM and the “MITC95 TarO inhibitor + 8 μg/mL DCX” value was found to be 6.25 µM.

On to `CCN(C(=O)CCn1c2cc(CN3CCN(CC(F)(F)F)CC3)ccc2nc1[C@H]1CC[C@H](CC)CC1)C1CCCCC1` [Example 30, N-cyclohexyl-N-ethyl-3-[2-(trans-4-ethylcyclohexyl)-6-{[4-(2,2,2-trifluoroethyl)piperazin-1-yl]methyl}-1H-benzimidazol-1-yl]propanamide], for which the IC95 is greater than 200 µM, the “MITC95 TarO inhibitor + 4 μg/mL IPM” value was determined as 18.75 µM and the “MITC95 TarO inhibitor + 8 μg/mL DCX” value is 25 µM.

On to `CCN(C(=O)CCn1c2cc(CN3CC(F)(F)C3)ccc2nc1[C@H]1CC[C@H](CC)CC1)C1CCCCC1` [Example 31, N-cyclohexyl-3-{6-[(3,3-difluoroazetidin-1-yl)methyl]-2-(trans-4-ethylcyclohexyl)-1H-benzimidazol-1-yl}-N-ethylpropanamide], for which the IC95 is greater than 200 µM, the “MITC95 TarO inhibitor + 4 μg/mL IPM” value is 6.25 µM and the “MITC95 TarO inhibitor + 8 μg/mL DCX” value is 50 µM.

With `CCN(C(=O)CCn1c2cccc(N3CCOCC3)c2nc1[C@H]1CC[C@H](CC)CC1)C1CCCCC1` [Example 32, N-cyclohexyl-N-ethyl-3-[2-(trans-4-ethylcyclohexyl)-4-morpholin-4-yl-1H-benzimidazol-1-yl]propanamide], the IC95 is greater than 200 µM, the “MITC95 TarO inhibitor + 4 μg/mL IPM” value turned out to be 20.83 µM and the “MITC95 TarO inhibitor + 8 μg/mL DCX” value came to 20.83 µM.

Take `CC1(C)[C@@H]2CC[C@@]1(C)[C@H](NC(=O)CCn1c3ccccc3nc1[C@H]1CC[C@@H](C(C)(C)C)CC1)C2` [Example 33, 3-[2-(cis-4-tert-butylcyclohexyl)-1H-benzimidazol-1-yl]-N-[(1R,2R,4R)-1,7,7-trimethylbicyclo[2.2.1]hept-2-yl]propanamide]: the IC95 was greater than 200 µM and the “MITC95 TarO inhibitor + 4 μg/mL IPM” value was determined as 0.06 µM.

For `CCN(C(=O)CCn1c(-c2ccc(OCC(F)(F)F)cc2)nc2ccccc21)C1CCCCC1` [Example 34, N-cyclohexyl-N-ethyl-3-{2-[4-(2,2,2-trifluoroethoxy)phenyl]-1H-benzimidazol-1-yl}propanamide], the IC95 is greater than 200 µM, the “MITC95 TarO inhibitor + 4 μg/mL IPM” value was 0.25 µM and the “MITC95 TarO inhibitor + 8 μg/mL DCX” value is 0.54 µM.

In the case of `CCN(C(=O)CCn1c(C2CCCCC2)nc2ccccc21)C1CCCCC1` [Example 35, N-cyclohexyl-3-(2-cyclohexyl-1H-benzimidazol-1-yl)-N-ethylpropanamide], the IC95 was greater than 200 µM, the “MITC95 TarO inhibitor + 4 μg/mL IPM” value amounted to 1.95 µM and the “MITC95 TarO inhibitor + 8 μg/mL DCX” value was 9.38 µM.

With `CCN(C(=O)CCn1c(-c2ccc(C(=O)OC)cc2)nc2ccccc21)C1CCCCC1` [Example 36, methyl 4-(1-{3-[cyclohexyl(ethyl)amino]-3-oxopropyl}-1H-benzimidazol-2-yl)benzoate], the IC95 was greater than 200 µM, the “MITC95 TarO inhibitor + 4 μg/mL IPM” value was 0.68 µM and the “MITC95 TarO inhibitor + 8 μg/mL DCX” value was 3.91 µM.

With `CCOc1ccc(-c2nc3ccccc3n2CCC(=O)N(CC)C2CCCCC2)cn1` [Example 38, N-cyclohexyl-3-[2-(6-ethoxypyridin-3-yl)-1H-benzimidazol-1-yl]-N-ethylpropanamide], the IC95 is greater than 200 µM, the “MITC95 TarO inhibitor + 4 μg/mL IPM” value was determined as 2.08 µM and the “MITC95 TarO inhibitor + 8 μg/mL DCX” value was determined as 12.50 µM.

In the case of `CN(C(=O)CCn1c(C2CCCCC2)nc2ccccc21)C1CCCCC1` [Example 39, N-cyclohexyl-3-(2-cyclohexyl-1H-benzimidazol-1-yl)-N-methylpropanamide], the IC95 is greater than 200 µM, the “MITC95 TarO inhibitor + 4 μg/mL IPM” value stood at 4.69 µM and the “MITC95 TarO inhibitor + 8 μg/mL DCX” value came out at 12.50 µM.
